Data taken from patent publication US20250084453A1, “SYSTEMS, COMPOSITIONS AND METHODS FOR IDENTIFYING E3 LIGASE SUBSTRATES BY UBIQUITIN BIOTINYLATION” (The Broad Institute, Inc., priority 2022, published 2025).

Tested on: CRBN E3 ligase
Assay: Mass spectrometry of streptavidin pulldown of biotinylated ubiquitinated proteins, CRBN-BirA 293T cells with Avi-Ub or A3-Ub
Type: cell-based, human
Experimental: The cells were either treated or untreated with carfilzomib (0.4 μM) for 1 hour and were either treated or untreated with the CRBN-IMiD modifying agent CC-885 (1 μM) for another hour. […] As discussed above in Example 1, the GSPT1 substrate of BirA-tagged CRBN is expressed endogenously in 293T cells.
For such MS analyses, 50 μl of resuspended streptavidin beads were incubated with 1 ml of cell lysates (3 mg/ml) at 4° C. overnight. On the next day, the beads were pelleted (400×g, 1 minute), washed two times with 2% SDS (2% SDS, 25 mM Tris-HCl pH 7.5), and then washed three times with 6M urea (6M urea, 50 mM Tris-HCl pH 8). Each wash was performed by rotating the samples at room temperature for at least five minutes. Following the washes, the beads were resuspended in 90 μl of 2M urea, to which 10 μl of 0.1M TCEP (tris(2-carboxyethyl)phosphine, reducing agent) was added for a final concentration of 10 mM TCEP. The samples were agitated at 37° C. for 30 minutes to allow for protein reduction. Next, 10 μl of 0.165 M IAA, (iodoacetamide, alkylating agent) was added to a final concentration of 15 mM IAA. The samples were agitated in the dark at room temperature for 45 minutes. Thereafter, 1 μg of trypsin/LysC (Promega, Trypsin/Lys-C Mix, Mass Spec Grade, V5071) was added to each sample, and the samples were agitated for 3-4 hours at 37° C. Subsequently, 0.5 μg of trypsin/LysC (Promega, Trypsin/Lys-C Mix, Mass Spec Grade, V5071) was added to each sample, and the samples were agitated overnight at 37° C. On the next day, the supernatant containing the digested peptides was collected. The beads were washed two times with HPLC-grade water and were combined with the previously collected supernatant. Samples were centrifuged at 21,000×g for 10 minutes, and the clarified supernatant at the top was saved. Samples were acidified by the addition of 50% formic acid to a final concentration of 2%. Samples were vacuum dried (Speedvac) overnight and kept at −80° C. until ready for analysis by MS. […]
The preparation of cellular lysate was as described above for Cell Lysis, except that the RIPA buffer was supplemented with COMPLETE™ EDTA-free protease inhibitor cocktail (Roche; 04693159001; 1 tablet per 10 ml of buffer), benzonase (Millipore; E1014; 1 μl per 10 ml of buffer), 1.5 mM MgCl2, 1 mM EGTA, and 10 mM NEM (N-ethylmaleimide). For each sample, 1 ml of 3 mg/ml lysate was rotated overnight at 4° C. with 50 μl of resuspended streptavidin Sepharose beads (CYTIVA™; 17511301), which were pre-washed with RIPA lysis buffer 3 times. For all steps that required pelleting of beads, centrifugation was performed at 400×g for 1 minute. On the next day, streptavidin beads were pelleted, and the supernatant (a.k.a. flow-through) was either saved for analysis by Western blotting or was discarded.

[1] = Table 3 (head Avi-, text A3-Ub), DMSO 0
[2] = Table 3 (head Avi-, text A3-Ub), DMSO 3
[3] = Table 3 (head Avi-, text A3-Ub), DMSO 5
[4] = Table 3 (head Avi-, text A3-Ub), DMSO 6
[5] = Table 3 (head Avi-, text A3-Ub), DMSO 7
[6] = Table 3 (head Avi-, text A3-Ub), DMSO 9
[7] = Table 3 (head Avi-, text A3-Ub), DMSO 15

Structure (SMILES): Cc1ccc(NC(=O)NCc2ccc3c(c2)CN(C2CCC(=O)NC2=O)C3=O)cc1Cl (stereo not drawn) [CC-885]
- Most upregulated proteins in streptavidin pulldown versus DMSO (A3-Ub, triplicates, log2 FC and p-value (limma), FIG. 9): GSPT1 and GSPT2
- # of PSMs, GSPT1 (Table 2, Avi-Ub, DMSO 0): 25
- # of PSMs, GSPT2 (Table 2, Avi-Ub, DMSO 0): 13
- # of PSMs, POLR2A (Table 2, Avi-Ub, DMSO 9): 11
- # of PSMs, PSMD4 (Table 2, Avi-Ub, DMSO 10): 11
- # of PSMs, VCL (Table 2, Avi-Ub, DMSO 10): 56
- # of PSMs, SMC1A (Table 2, Avi-Ub, DMSO 12): 13
- # of PSMs, H2AFV (Table 2, Avi-Ub, DMSO 14): 14
- # of PSMs, CTNNA1 (Table 2, Avi-Ub, DMSO 15): 12
- # of PSMs, gene symbol printed as image P00007 (Table 2, Avi-Ub, DMSO 16): 18
- # of PSMs, DYNC1H1 (Table 2, Avi-Ub, DMSO 17): 13
- # of PSMs, RPS3 (Table 2, Avi-Ub, DMSO 17): 21
- # of PSMs, HSPA1B; HSPA1A (Table 2, Avi-Ub, DMSO 18): 18
- # of PSMs, HIST2H2AC (Table 2, Avi-Ub, DMSO 19): 18
- # of PSMs, UBE2K (Table 2, Avi-Ub, DMSO 19): 17
- # of PSMs, CTNNB1 (Table 2, Avi-Ub, DMSO 20): 15
- # of PSMs, HSPA8 (Table 2, Avi-Ub, DMSO 20): 13
- # of PSMs, MCCC1 (Table 2, Avi-Ub, DMSO 20): 16
- # of PSMs, PRPF8 (Table 2, Avi-Ub, DMSO 20): 19
- # of PSMs, UBE2N (Table 2, Avi-Ub, DMSO 20): 14
- # of PSMs, VCP (Table 2, Avi-Ub, DMSO 20): 11
- # of PSMs, DSP (Table 2, Avi-Ub, DMSO 21): 14
- # of PSMs, gene symbol printed as image P00006 (Table 2, Avi-Ub, DMSO 21): 13
- # of PSMs, EEF2 (Table 2, Avi-Ub, DMSO 22): 13
- # of PSMs, HSP90AB1 (Table 2, Avi-Ub, DMSO 22): 15
- # of PSMs, gene symbol printed as image P00001 (Table 2, Avi-Ub, DMSO 22): 15
- # of PSMs, gene symbol printed as image P00003 (Table 2, Avi-Ub, DMSO 22): 14
- # of PSMs, AMOT (Table 2, Avi-Ub, DMSO 23): 19
- # of PSMs, HSP90AA1 (Table 2, Avi-Ub, DMSO 24): 13
- # of PSMs, PRKDC (Table 2, Avi-Ub, DMSO 24): 17
- # of PSMs, FASN (Table 2, Avi-Ub, DMSO 28): 17
- # of PSMs, USP9X (Table 2, Avi-Ub, DMSO 32): 21
- # of PSMs, UBA1 (Table 2, Avi-Ub, DMSO 34): 31
- # of PSMs, gene symbol printed as image P00004 (Table 2, Avi-Ub, DMSO 34): 30
- # of PSMs, gene symbol printed as image P00005 (Table 2, Avi-Ub, DMSO 36): 29
- # of PSMs, UBE2O (Table 2, Avi-Ub, DMSO 37): 23
- # of PSMs, UBA6 (Table 2, Avi-Ub, DMSO 39): 37
- # of PSMs, gene symbol printed as image P00002 (Table 2, Avi-Ub, DMSO 39): 33
- # of PSMs, PCCA (Table 2, Avi-Ub, DMSO 45): 41
- # of PSMs, ACACA (Table 2, Avi-Ub, DMSO 60): 52
- # of PSMs, PC (Table 2, Avi-Ub, DMSO 116): 104
- # of PSMs, ACACB [1]: 17
- # of PSMs, GSPT1 [1]: 30
- # of PSMs, GSPT2 [1]: 20
- # of PSMs, HIST1H1D [1]: 5
- # of PSMs, VCL [1]: 9
- # of PSMs, CCDC144A [2]: 10
- # of PSMs, DDX5 [2]: 5
- # of PSMs, HIST2H2BF [3]: 5
- # of PSMs, SPEN [3]: 9
- # of PSMs, HIST2H2BE [4]: 6
- # of PSMs, THAP5 [4]: 7
- # of PSMs, gene symbol printed as image P00009 [4]: 6
- # of PSMs, CCT8 [5]: 14
- # of PSMs, EEF1A1 [5]: 6
- # of PSMs, EEF2 [5]: 5
- # of PSMs, ENO1 [5]: 6
- # of PSMs, UBE2N [5]: 6
- # of PSMs, HIST1H4A . . . [6]: 9
- # of PSMs, HSP90AB1 [6]: 9
- # of PSMs, gene symbol printed as image P00010 (Table 3 (head Avi-, text A3-Ub), DMSO 10): 11
- # of PSMs, HSP90AA1 (Table 3 (head Avi-, text A3-Ub), DMSO 14): 12
- # of PSMs, HSPA1B; HSPA1A [7]: 6
- # of PSMs, HSPA8 [7]: 10
- # of PSMs, gene symbol printed as image P00008 (Table 3 (head Avi-, text A3-Ub), DMSO 23): 17
- # of PSMs, MCCC1 (Table 3 (head Avi-, text A3-Ub), DMSO 26): 24
- # of PSMs, ACACA (Table 3 (head Avi-, text A3-Ub), DMSO 71): 75
- # of PSMs, PCCA (Table 3 (head Avi-, text A3-Ub), DMSO 106): 103
- # of PSMs, PC (Table 3 (head Avi-, text A3-Ub), DMSO 155): 167
